Assay results from PubChem BioAssay AID256 (DTP/NCI, 2004).
Values joined by “and” are separate entries in the source; they are usually repeats but may differ in a detail not shown here. Equal entries are not always repeated. Inconclusive results and toxic doses are left out.

Tested on: CD2F1 mice, L1210 leukemia ip, survival T/C
Experiment: NCI In Vivo Anticancer Drug Screen. Data for tumor model L1210 Leukemia (intraperitoneal) in CD2F1 (CDF1) mice
Conditions: higher = longer survival
In short: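 Ratio T/C, where T is the treated-group value and C the vehicle-dosed control value, from mice implanted with a transplantable tumor.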

[1] = endpoint: mean survival time, dose: 12.5 mg/kg/injection, schedule: Q04DX003 (ip), vehicle: saline with Tween-80
[2] = endpoint: mean survival time, dose: 25.0 mg/kg/injection, schedule: Q04DX003 (ip), vehicle: saline with Tween-80
[3] = endpoint: mean survival time, dose: 100.0 mg/kg/injection, schedule: Q01DX001 (ip), vehicle: saline
[4] = endpoint: mean survival time, dose: 200.0 mg/kg/injection, schedule: Q01DX001 (ip), vehicle: saline
[5] = endpoint: mean survival time, dose: 400.0 mg/kg/injection, schedule: Q01DX001 (ip), vehicle: saline
[6] = endpoint: mean survival time, dose: 100.0 mg/kg/injection, schedule: Q01DX009 (ip), vehicle: saline with Tween-80
[7] = endpoint: mean survival time, dose: 200.0 mg/kg/injection, schedule: Q01DX009 (ip), vehicle: saline with Tween-80
[8] = endpoint: mean survival time, dose: 100.0 mg/kg/injection, schedule: Q04DX003 (ip), vehicle: saline with Tween-80
[9] = endpoint: mean survival time, dose: 200.0 mg/kg/injection, schedule: Q04DX003 (ip), vehicle: saline with Tween-80
[10] = endpoint: mean survival time, dose: 400.0 mg/kg/injection, schedule: Q04DX003 (ip), vehicle: saline with Tween-80
[11] = endpoint: mean survival time, dose: 400.0 mg/kg/injection, schedule: Q01DX009 (ip), vehicle: saline with Tween-80
[12] = endpoint: mean survival time, dose: 50.0 mg/kg/injection, schedule: Q01DX009 (ip), vehicle: saline with Tween-80
[13] = endpoint: mean survival time, dose: 50.0 mg/kg/injection, schedule: Q04DX003 (ip), vehicle: saline with Tween-80
[14] = endpoint: mean survival time, dose: 100.0 mg/kg/injection, schedule: Q01DX001 (ip), vehicle: Klucel (hydroxypropylcellulose) (HPC)
[15] = endpoint: mean survival time, dose: 200.0 mg/kg/injection, schedule: Q01DX001 (ip), vehicle: Klucel (hydroxypropylcellulose) (HPC)
[16] = endpoint: mean survival time, dose: 400.0 mg/kg/injection, schedule: Q01DX001 (ip), vehicle: Klucel (hydroxypropylcellulose) (HPC)
[17] = endpoint: mean survival time, dose: 100.0 mg/kg/injection, schedule: Q04DX002 (ip), vehicle: saline with Tween-80
[18] = endpoint: mean survival time, dose: 200.0 mg/kg/injection, schedule: Q04DX002 (ip), vehicle: saline with Tween-80

## CC(/C=N/NC(N)=S)Cc1ccc(C(C)C)cc1 (centres undefined)
endpoint: mean survival time, dose: 3.12 mg/kg/injection, schedule: Q01DX009 (ip), vehicle: acetone
  T/C: 104 % of control
endpoint: mean survival time, dose: 6.25 mg/kg/injection, schedule: Q01DX009 (ip), vehicle: acetone
  T/C: 104 % of control
endpoint: mean survival time, dose: 12.5 mg/kg/injection, schedule: Q01DX009 (ip), vehicle: acetone
  T/C: 104 % of control

## CC(C)(C)N[P+](Cc1ccccc1)(NC(C)(C)C)c1ccccc1
[1]
  T/C: 90 % of control
[2]
  T/C: 90 % of control

## O=CNc1ccccc1OCc1ccccc1
[3]
  T/C: 100 % of control
[4]
  T/C: 97 % of control
[5]
  T/C: 103 % of control

## CC(=O)c1ccccc1[N+](=O)[O-]
[6]
  T/C: 94 % of control
[7]
  T/C: 95 % of control

## CCCCCC(O)C1CCCCC1C (centres undefined)
[8]
  T/C: 105 % of control
[9]
  T/C: 102 % of control
[10]
  T/C: 90 % of control

## Cc1[nH]c(=S)[nH]c(=O)c1CC(C)O (centres undefined)
[6]
  T/C: 97 % of control
[7]
  T/C: 90 % of control
[11]
  T/C: 98 % of control

## COc1ccc(CC(N)C(=O)OCc2ccccc2)cc1N(CCCl)CCCl (centres undefined)
endpoint: mean survival time, dose: 3.0 mg/kg/injection, schedule: Q01DX009 (ip), vehicle: saline
  T/C: 177 % of control
endpoint: mean survival time, dose: 6.0 mg/kg/injection, schedule: Q01DX009 (ip), vehicle: saline
  T/C: 118 % of control

## CCN(CC)CCNc1nc(-c2cc(C(F)(F)F)cc(C(F)(F)F)c2)nc(C(Cl)(Cl)Cl)n1
endpoint: mean survival time, dose: 100.0 mg/kg/injection, schedule: Q01DX005 (ip), vehicle: saline
  T/C: 100 % of control
endpoint: mean survival time, dose: 100.0 mg/kg/injection, schedule: Q01DX009 (ip), vehicle: saline
  T/C: 93 % of control
endpoint: mean survival time, dose: 200.0 mg/kg/injection, schedule: Q01DX005 (ip), vehicle: saline
  T/C: 103 % of control
endpoint: mean survival time, dose: 200.0 mg/kg/injection, schedule: Q01DX009 (ip), vehicle: saline
  T/C: 93 % of control
endpoint: mean survival time, dose: 400.0 mg/kg/injection, schedule: Q01DX005 (ip), vehicle: saline
  T/C: 95 % of control
endpoint: mean survival time, dose: 400.0 mg/kg/injection, schedule: Q01DX009 (ip), vehicle: saline
  T/C: 93 % of control

## CN(C)/N=C(\CBr)c1ccc(Br)cc1
[3]
  T/C: 103 % of control
[4]
  T/C: 100 % of control

## COc1cccc(OC)c1OC(=O)Nc1c(Cl)cccc1Cl
[12]
  T/C: 96 % of control
[6]
  T/C: 92 % of control
[7]
  T/C: 105 % of control

## S=P(N1CC1)(N1CC1)N1CC1.[Cl-].[Cl-].[NH2-].[NH2-].[Pt+4]
endpoint: mean survival time, dose: 0.78 mg/kg/injection, schedule: Q01DX009 (ip), vehicle: Klucel (hydroxypropylcellulose) (HPC)
  T/C: 112 % of control and 101 % of control
endpoint: mean survival time, dose: 1.56 mg/kg/injection, schedule: Q01DX009 (ip), vehicle: Klucel (hydroxypropylcellulose) (HPC)
  T/C: 114 % of control and 115 % of control and 107 % of control
endpoint: mean survival time, dose: 3.13 mg/kg/injection, schedule: Q01DX009 (ip), vehicle: Klucel (hydroxypropylcellulose) (HPC)
  T/C: 153 % of control
endpoint: mean survival time, dose: 6.25 mg/kg/injection, schedule: Q01DX009 (ip), vehicle: Klucel (hydroxypropylcellulose) (HPC)
  T/C: 111 % of control

## S=c1[nH]c2cc(Cl)c(Cl)cc2[nH]1
[3]
  T/C: 100 % of control
[4]
  T/C: 100 % of control
[5]
  T/C: 102 % of control

## CC(=O)c1cc(C)c[n+](C2OC(COC(=O)c3ccccc3)C(OC(=O)c3ccccc3)C2O)c1 (centres undefined)
endpoint: mean survival time, dose: 3.13 mg/kg/injection, schedule: Q01DX005 (ip), vehicle: water
  T/C: 100 % of control
endpoint: mean survival time, dose: 6.25 mg/kg/injection, schedule: Q01DX005 (ip), vehicle: water
  T/C: 98 % of control
endpoint: mean survival time, dose: 12.5 mg/kg/injection, schedule: Q01DX005 (ip), vehicle: water
  T/C: 106 % of control
endpoint: mean survival time, dose: 25.0 mg/kg/injection, schedule: Q01DX005 (ip), vehicle: water
  T/C: 93 % of control
endpoint: mean survival time, dose: 50.0 mg/kg/injection, schedule: Q01DX005 (ip), vehicle: water
  T/C: 100 % of control and 101 % of control
endpoint: mean survival time, dose: 100.0 mg/kg/injection, schedule: Q01DX005 (ip), vehicle: water
  T/C: 93 % of control

## [Cl][Pt+2][Cl].[NH-]CC([NH-])c1ccc2oc3ccccc3c2c1 (centres undefined)
endpoint: median survival time, dose: 10.0 mg/kg/injection, schedule: Q04DX003 (ip), vehicle: saline
  T/C: 100 % of control
endpoint: median survival time, dose: 20.0 mg/kg/injection, schedule: Q04DX003 (ip), vehicle: saline
  T/C: 94 % of control
endpoint: median survival time, dose: 40.0 mg/kg/injection, schedule: Q04DX003 (ip), vehicle: saline
  T/C: 105 % of control
endpoint: median survival time, dose: 80.0 mg/kg/injection, schedule: Q04DX003 (ip), vehicle: saline with Tween-80
  T/C: 107 % of control
endpoint: median survival time, dose: 80.0 mg/kg/injection, schedule: Q04DX003 (ip), vehicle: saline
  T/C: 110 % of control

## Cc1ccc(S(=O)(=O)OCC(OS(=O)(=O)c2ccc(C)cc2)C2OC(c3ccccc3)OC2C2COC(c3ccccc3)O2)cc1 (centres undefined)
[6]
  T/C: 95 % of control
[7]
  T/C: 95 % of control
[11]
  T/C: 95 % of control

## N#CC(=C1SCS1)[N+](=O)[O-]
endpoint: mean survival time, dose: 0.37 mg/kg/injection, schedule: Q01DX009 (ip), vehicle: saline with Tween-80
  T/C: 101 % of control and 102 % of control
endpoint: mean survival time, dose: 0.75 mg/kg/injection, schedule: Q01DX009 (ip), vehicle: saline with Tween-80
  T/C: 101 % of control
endpoint: mean survival time, dose: 1.5 mg/kg/injection, schedule: Q01DX009 (ip), vehicle: saline with Tween-80
  T/C: 100 % of control and 102 % of control
endpoint: mean survival time, dose: 3.0 mg/kg/injection, schedule: Q01DX009 (ip), vehicle: saline with Tween-80
  T/C: 102 % of control and 104 % of control
endpoint: mean survival time, dose: 6.0 mg/kg/injection, schedule: Q01DX009 (ip), vehicle: saline with Tween-80
  T/C: 108 % of control
endpoint: mean survival time, dose: 12.0 mg/kg/injection, schedule: Q01DX009 (ip), vehicle: saline with Tween-80
  T/C: 106 % of control

## CCn1cnc(-c2ccccc2)c1-c1ccccc1
endpoint: mean survival time, dose: 25.0 mg/kg/injection, schedule: Q01DX009 (ip), vehicle: saline with Tween-80
  T/C: 110 % of control
[12]
  T/C: 107 % of control
[6]
  T/C: 98 % of control
[8]
  T/C: 101 % of control

## COc1cccc(C=Nc2ccc(C)cc2)c1O.COc1cccc(C=Nc2ccc(C)cc2)c1O.[Co]
[2]
  T/C: 91 % of control
[13]
  T/C: 88 % of control
endpoint: mean survival time, dose: 50.0 mg/kg/injection, schedule: Q04DX003 (ip), vehicle: saline
  T/C: 102 % of control
[8]
  T/C: 94 % of control
endpoint: mean survival time, dose: 100.0 mg/kg/injection, schedule: Q04DX003 (ip), vehicle: saline
  T/C: 98 % of control
[9]
  T/C: 94 % of control
endpoint: mean survival time, dose: 200.0 mg/kg/injection, schedule: Q04DX003 (ip), vehicle: saline
  T/C: 96 % of control
[10]
  T/C: 99 % of control
endpoint: mean survival time, dose: 400.0 mg/kg/injection, schedule: Q04DX003 (ip), vehicle: saline
  T/C: 98 % of control

## CC(=O)Nc1cccc(OCOc2ccc([N+](=O)[O-])cc2)c1
[14]
  T/C: 90 % of control
[15]
  T/C: 110 % of control
[16]
  T/C: 97 % of control

## CCOC(=O)Nc1cc(NCC(=O)CCc2ccccc2)c([N+](=O)[O-])c(N)n1
[14]
  T/C: 93 % of control
[15]
  T/C: 91 % of control
[16]
  T/C: 91 % of control

## Cc1ccc(S(=O)(=O)N(C)C)cc1NC1=NCCO1
[13]
  T/C: 95 % of control
[8]
  T/C: 95 % of control
[9]
  T/C: 90 % of control
[10]
  T/C: 90 % of control

## Nc1ccc(N2CCNCC2)cc1
[8]
  T/C: 104 % of control
[9]
  T/C: 101 % of control

## Nc1nnnc2c1ncn2C1OC(CO)C(O)C1O (centres undefined)
endpoint: mean survival time, dose: 300.0 mg/kg/injection, schedule: Q01DX001 (ip), vehicle: saline
  T/C: 121 % of control

## CCOC(=O)c1nc(SC)n(C)c1C(=O)OCC
[17]
  T/C: 94 % of control
[18]
  T/C: 105 % of control

## Cc1cc(Cl)c2nc(-c3ccccc3)ccc2c1
[6]
  T/C: 103 % of control
[7]
  T/C: 101 % of control
[11]
  T/C: 97 % of control

## O=NN(CCOS(=O)(=O)c1ccc([N+](=O)[O-])cc1)C(=O)NC1CCCCC1
endpoint: mean survival time, dose: 100.0 mg/kg/injection, schedule: Q01DX001 (ip), vehicle: other
  T/C: 106 % of control
endpoint: mean survival time, dose: 200.0 mg/kg/injection, schedule: Q01DX001 (ip), vehicle: other
  T/C: 153 % of control
endpoint: mean survival time, dose: 400.0 mg/kg/injection, schedule: Q01DX001 (ip), vehicle: other
  T/C: 472 % of control

## O=[N+]([O-])c1cc([N+](=O)[O-])c(Cl)s1
[1]
  T/C: 92 % of control
[2]
  T/C: 91 % of control
[13]
  T/C: 88 % of control

## COc1ccccc1NC(=O)Oc1ccc(C(C)(C)C)cc1
[17]
  T/C: 96 % of control
[18]
  T/C: 88 % of control
endpoint: mean survival time, dose: 400.0 mg/kg/injection, schedule: Q04DX002 (ip), vehicle: saline with Tween-80
  T/C: 100 % of control

## NCC1CC2C=CC1C2 (centres undefined)
[3]
  T/C: 100 % of control
[4]
  T/C: 93 % of control

## N#Cc1ccccc1C#N
[2]
  T/C: 97 % of control
